Where “and” joins values, the source holds several entries; their conditions need not be identical. Equal entries are not always repeated.
Tested on: MDA-MB-468 multi-cell spheroids, viability
Assay: Anticancer human tumor MDA-MB-468 cell line growth inhibition [IpAb];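 note: spheroids exposed to agents for seven days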;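 for viability, T/C: 100% = DMSO vehicle control viability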
Settings: for viability, T/C: stronger effect = lower value; active = viability on the fitted dose curve at most 10% of control; inactive = the rest
Method in brief: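 Spheroids of 60% malignant cells, 25% HUVEC and 15% MSC were exposed to targeted agents combined with ipatasertib or abemaciclib. Doses started at or near clinical Cmax (10 microM when unknown) and fell in half-log steps.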

[1] = curve of first compound, second compound 0.01 µM
[2] = curve of first compound, second compound 0.0316 µM
[3] = curve of first compound, second compound 0.1 µM
[4] = curve of first compound, second compound 0.316 µM
[5] = curve of first compound, second compound 1 µM
[6] = second compound 0.01 µM, first compound 0.0316 µM
[7] = second compound 0.01 µM, first compound 0.1 µM
[8] = second compound 0.01 µM, first compound 0.316 µM
[9] = second compound 0.01 µM, first compound 1 µM
[10] = second compound 0.01 µM, first compound 3.16 µM
[11] = second compound 0.01 µM, first compound 10 µM
[12] = second compound 0.0316 µM, first compound 0.0316 µM
[13] = second compound 0.0316 µM, first compound 0.1 µM
[14] = second compound 0.0316 µM, first compound 0.316 µM
[15] = second compound 0.0316 µM, first compound 1 µM
[16] = second compound 0.0316 µM, first compound 3.16 µM
[17] = second compound 0.0316 µM, first compound 10 µM
[18] = second compound 0.1 µM, first compound 0.0316 µM
[19] = second compound 0.1 µM, first compound 0.1 µM
[20] = second compound 0.1 µM, first compound 0.316 µM
[21] = second compound 0.1 µM, first compound 1 µM
[22] = second compound 0.1 µM, first compound 3.16 µM
[23] = second compound 0.1 µM, first compound 10 µM
[24] = second compound 0.316 µM, first compound 0.0316 µM
[25] = second compound 0.316 µM, first compound 0.1 µM
[26] = second compound 0.316 µM, first compound 0.316 µM
[27] = second compound 0.316 µM, first compound 1 µM
[28] = second compound 0.316 µM, first compound 3.16 µM
[29] = second compound 0.316 µM, first compound 10 µM
[30] = second compound 1 µM, first compound 0.0316 µM
[31] = second compound 1 µM, first compound 0.1 µM
[32] = second compound 1 µM, first compound 0.316 µM
[33] = second compound 1 µM, first compound 1 µM
[34] = second compound 1 µM, first compound 3.16 µM
[35] = second compound 1 µM, first compound 10 µM

Cn1nccc1Nc1nccc(-c2ccn(C(CO)c3ccc(Cl)c(F)c3)c(=O)c2)n1 (configuration not stated) + CCN1CCN(Cc2ccc(Nc3ncc(F)c(-c4cc(F)c5nc(C)n(C(C)C)c5c4)n3)nc2)CC1
4.42 µM: IC50 [5]
4.19 µM: IC50 [4]
4.35 µM: IC50 [1]
4.7 µM: IC50 [2]
inactive: viability, T/C [6] 92% | viability, T/C [7] 83% | viability, T/C [8] 86% | viability, T/C [9] 77.7% | viability, T/C [10] 70% | viability, T/C [12] 93.3% | viability, T/C [13] 77.9% | viability, T/C [14] 71% | viability, T/C [15] 84.6% | viability, T/C [16] 73.1% | viability, T/C [18] 93.6% | viability, T/C [19] 87.5% | viability, T/C [20] 86.2% | viability, T/C [21] 83.1% | viability, T/C [22] 58.5% | viability, T/C [24] 104% | viability, T/C [25] 92.2% | viability, T/C [26] 89.2% | viability, T/C [27] 78.7% | viability, T/C [28] 68.2% | viability, T/C [29] 9.01% | viability, T/C [30] 86.5% | viability, T/C [31] 78.8% | viability, T/C [32] 74.5% | viability, T/C [33] 85.9% | viability, T/C [34] 64.2% | viability, T/C [35] 15.3%
3.83 µM: IC50 [3]
active: viability, T/C [11] 3.11% | viability, T/C [17] 6.23% | viability, T/C [23] 5.62%

CC(C)NCC(C(=O)N1CCN(c2ncnc3c2C(C)CC3O)CC1)c1ccc(Cl)cc1 (configuration not stated)
inactive: viability, T/C (compound 0.1 µM) 91.9% [middle of 13 runs] | viability, T/C (compound 1 µM) 54.4% [middle of 13 runs] | viability, T/C (compound 3.16 µM) 35.1% [middle of 13 runs] | viability, T/C (compound 10 µM) 18.4% [middle of 13 runs]
1.25 µM [middle of 12 runs]: IC50 (compound alone, run of 05/18/2021)

CC1(C)CCC(CN2CCN(c3ccc(C(=O)NS(=O)(=O)c4ccc(NCC5CCOCC5)c([N+](=O)[O-])c4)c(Oc4cnc5[nH]ccc5c4)c3)CC2)=C(c2ccc(Cl)cc2)C1
inactive: viability, T/C (compound 0.0316 µM) 111% and 107% | viability, T/C (compound 0.1 µM) 106% and 94.5% | viability, T/C (compound 0.316 µM) 102% and 89.2% | viability, T/C (compound 1 µM) 95.9% and 85.8% | viability, T/C (compound 3.16 µM) 73% and 52.9%
10% and 5.86%: viability, T/C (compound 10 µM)
4.77 µM and 3.52 µM: IC50 (curve of compound)

CC1(C)CCC(CN2CCN(c3ccc(C(=O)NS(=O)(=O)c4ccc(NCC5CCOCC5)c([N+](=O)[O-])c4)c(Oc4cnc5[nH]ccc5c4)c3)CC2)=C(c2ccc(Cl)cc2)C1 + CCN1CCN(Cc2ccc(Nc3ncc(F)c(-c4cc(F)c5nc(C)n(C(C)C)c5c4)n3)nc2)CC1
4.28 µM: IC50 [4]
3.04 µM: IC50 [3]
4.24 µM: IC50 [2]
2.04 µM: IC50 [5]
active: viability, T/C [23] 9.29% | viability, T/C [29] 9.61% | viability, T/C [35] 5.14%
3.13 µM: IC50 [1]
inactive: viability, T/C [6] 96.2% | viability, T/C [7] 81.1% | viability, T/C [8] 82.5% | viability, T/C [9] 85% | viability, T/C [10] 49.7% | viability, T/C [11] 10.2% | viability, T/C [12] 88.6% | viability, T/C [13] 86.9% | viability, T/C [14] 89.8% | viability, T/C [15] 74.8% | viability, T/C [16] 66.2% | viability, T/C [17] 9.92% | viability, T/C [18] 92.1% | viability, T/C [19] 96.6% | viability, T/C [20] 105% | viability, T/C [21] 109% | viability, T/C [22] 48.1% | viability, T/C [24] 99.3% | viability, T/C [25] 109% | viability, T/C [26] 94.9% | viability, T/C [27] 94.1% | viability, T/C [28] 64.1% | viability, T/C [30] 75.4% | viability, T/C [31] 86.5% | viability, T/C [32] 78.8% | viability, T/C [33] 77.9% | viability, T/C [34] 32.9%

From PubChem BioAssay AID2060326 (Molecular Pharmacology Branch, DTP, NCI, 2025)
